In brackets after ≈: the same amount, converted by molar mass. Several values for one entry are separate records, joined by “and”; a condition that tells them apart may be missing. Equal entries are not always repeated. Where two headings read alike, the source gives them in different places. Bridge positions count the residues as written; N and C are the ends. Square brackets hold non-standard residues; d marks the D form. Ends that are not written are not given here. Peptide text beside a SMILES is read from it. I, II: the chains in the order shown.
How the values were obtained:
[1] = system: P. aeruginosa ATCC 27853; assay: MIC/MBC, broth microdilution and subculture on CA-MH agar; format: cell-based, Pseudomonas aeruginosa; design: key to Act (antibacterial activity): Bc, bactericidal; Bs, bacteriostatic; conditions: for MBC: subculture on CA-MH agar, 37 °C, 24 h; for MBC / MIC: triplicate, mode; for MIC: broth microdilution
Procedure: (§1) Bacterial isolates from the American Type Culture Collection (ATCC) were obtained from the Collection of Reference Bacteria on Health Surveillance, Oswaldo Cruz Foundation (FIOCRUZ) after phenotypic and molecular quality control and were registered at SISGEN under the number ADB556B. The minimum inhibitory concentration (MIC) was determined as previously described by Santos-Filho et al., 2021 [17], using the broth microdilution method. The MIC was the lowest concentration that inhibited microbial growth. […] MBC was defined as the lowest peptide concentration with no visible growth on the plate. […] The assay was performed in triplicate, and the values represent the mode of the obtained results.
(§2) Thus, to assess the relevance of the antimicrobial effect of p-Bth analogs, their Minimum Inhibitory Concentration (MIC) and Minimum Bactericidal Concentration (MBC) were analyzed against relevant bacteria. The evaluated strains were the Gram-positives: S. aureus ATCC 25923, S. epidermidis ATCC 35984, E. faecalis ATCC 29212, and E. faecium ATCC […] (Table 1); and the Gram-negatives: K. pneumoniae ATCC 700603, E. coli ATCC 25922, A. baumannii ATCC 19606, and P. aeruginosa ATCC 27853 (Table 2).

[2] = system: E. faecalis ATCC 29212; assay: as above; format: cell-based; design: key to Act (antibacterial activity): Bc, bactericidal; Bs, bacteriostatic; conditions: for MIC: broth microdilution; for MIC / MBC: triplicate, mode; for MBC: subculture on CA-MH agar, 37 °C, 24 h
Procedure: as §1, §2

[3] = system: S. epidermidis ATCC 35984; assay: as above; format: cell-based; design: key to Act (antibacterial activity): Bc, bactericidal; Bs, bacteriostatic; conditions: for MIC: broth microdilution; for MIC / MBC: triplicate, mode; for MBC: subculture on CA-MH agar, 37 °C, 24 h
Procedure: as §1, §2

[4] = system: E. coli ATCC 25922; assay: as above; format: cell-based; design: key to Act (antibacterial activity): Bc, bactericidal; Bs, bacteriostatic; conditions: for MIC: broth microdilution; for MIC / MBC: triplicate, mode; for MBC: subculture on CA-MH agar, 37 °C, 24 h
Procedure: as §1, §2

[5] = biological target: T1, SARS-CoV-2 PL^pro (Severe acute respiratory syndrome coronavirus 2, UniProt P0DTD1); assay: PL^pro enzymatic inhibition assay; format: biochemical; conditions: PL^pro from SARS-CoV-2; for inhibition at 10 µM: peptide 10 µM; for IC50: two independent experiments
T1 construct: made in house

[6] = system: K. pneumoniae ATCC 700603; assay: MIC/MBC, broth microdilution and subculture on CA-MH agar; format: cell-based, Klebsiella pneumoniae; design: key to Act (antibacterial activity): Bc, bactericidal; Bs, bacteriostatic; conditions: for MIC: broth microdilution; for MIC / MBC: triplicate, mode; for MBC: subculture on CA-MH agar, 37 °C, 24 h
Procedure: as §1, §2

[7] = system: A. baumannii ATCC 19606; assay: as above; format: cell-based, Acinetobacter baumannii; design: key to Act (antibacterial activity): Bc, bactericidal; Bs, bacteriostatic; conditions: for MIC: broth microdilution; for MIC / MBC: triplicate, mode; for MBC: subculture on CA-MH agar, 37 °C, 24 h
Procedure: as §1, §2

[8] = system: S. aureus ATCC 25923; assay: as above; format: cell-based, Staphylococcus aureus; design: key to Act (antibacterial activity): Bc, bactericidal; Bs, bacteriostatic; conditions: for MIC: broth microdilution; for MIC / MBC: triplicate, mode; for MBC: subculture on CA-MH agar, 37 °C, 24 h
Procedure: as §1, §2

[9] = system: E. faecium ATCC 700221; assay: as above; format: cell-based, Enterococcus faecium; design: key to Act (antibacterial activity): Bc, bactericidal; Bs, bacteriostatic; conditions: for MIC: broth microdilution; for MIC / MBC: triplicate, mode; for MBC: subculture on CA-MH agar, 37 °C, 24 h
Procedure: as §1, §2

[10] = system: SARS-CoV-2; conditions: Vero cells; cited from earlier work
Text: In December 2019, the first case of viral infection with a new coronavirus was reported in China, which was later named severe acute respiratory syndrome coronavirus 2 (SARS-CoV-2), and the disease caused by this was named coronavirus-2019 or COVID-19 by the WHO. This disease has taken on great proportions, causing a pandemic scenario and great global concern. Even with the improvements in disease control, there is still a need for new, specific antiviral therapeutic options. As antimicrobial peptides also have antiviral action, the L-dimer, D-dimer and L-tetramer, in addition to ...

[11] = biological target: T1, SARS-CoV-2 PL^pro; conditions: PL^pro from SARS-CoV-2, ref 19 (Freire et al., 2021), cited from earlier work
Procedure: Table 3 PL^pro activity by peptide analogs of p-BThTX-I at the concentration of 10 μM and IC50 values. Representative concentration–response inhibition curves against PL^pro from SARS-CoV-2 are presented in the Supplementary Material (Figure S7). | column: Inhibition (%) at 10 µM; IC50 μM

[12] = MBC/MIC ratio >4 suggests bacteriostatic

## CC(C)C[C@H](NC(=O)[C@H](Cc1c[nH]cn1)NC(=O)[C@H](Cc1ccc(O)cc1)NC(=O)[C@H](CCCNC(=N)N)NC(=O)[C@H](Cc1ccc(O)cc1)NC(=O)[C@H](CCCCN)NC(=O)[C@@H](N)CCCCN)C(=O)N[C@@H](CCCCN)C(=O)N1CCC[C@H]1C(=O)N[C@@H](Cc1ccccc1)C(N)=O [L-monomer] (H-KKYRYHLKPF-NH2)
[1]
  MBC: >512 µg/mL
[2]
  MIC: >371 µM
  MBC: >512 µg/mL
[3]
  MIC: >371 µM
  MBC: >512 µg/mL
[4]
  MIC: >371 µM
  MBC: >512 µg/mL
[5]
  inhibition at 10 µM: 93.3%
  IC50: 2100 ± 100 nM
[6]
  MIC: >371 µM
  MBC: >512 µg/mL
[7]
  MIC: >371 µM
  MBC: >512 µg/mL
[8]
  MIC: >371 µM
  MBC: >512 µg/mL
[9]
  MIC: >371 µM
  MBC: >512 µg/mL

## CC(C)C[C@@H](NC(=O)[C@@H](Cc1c[nH]cn1)NC(=O)[C@@H](Cc1ccc(O)cc1)NC(=O)[C@@H](CCCNC(=N)N)NC(=O)[C@@H](Cc1ccc(O)cc1)NC(=O)[C@@H](CCCCN)NC(=O)[C@H](N)CCCCN)C(=O)N[C@H](CCCCN)C(=O)N1CCC[C@@H]1C(=O)N[C@H](Cc1ccccc1)C(N)=O [D-monomer] (H-[dK][dK][dY][dR][dY][dH][dL][dK][dP][dF]-NH2)
[1]
  MIC: >371 µM
  MBC: >512 µg/mL
[2]
  MIC: >371 µM
  MBC: >512 µg/mL
[3]
  MIC: >371 µM
  MBC: >512 µg/mL
[4]
  MIC: 185 µM (≈ 255 µg/mL)
  MBC: 256 µg/mL (≈ 186 µM)
[5]
  inhibition at 10 µM: 85 ± 3%
  IC50: 3000 ± 1000 nM
[6]
  MIC: 371 µM (≈ 511 µg/mL)
  MBC: 512 µg/mL (≈ 371 µM)
[7]
  MIC: >371 µM
  MBC: >512 µg/mL
[8]
  MIC: >371 µM
  MBC: >512 µg/mL
[9]
  MIC: >371 µM
  MBC: >512 µg/mL

## I: KKYRYHLKPFKK-NH2 / II: KKYRYHLKPFK / III: KKYRYHLKPF / IV: KKYRYHLKPF (amide I:11-IV:C, I:12-II:C, II:11-III:C) [L-tetramer]
[1]; [12]
  Act (antibacterial activity): Bc
[1]
  MIC: 32 μg/mL and 5 µM
  MBC: 64 µg/mL
[2]; [12]
  Act (antibacterial activity): Bc
[2]
  MIC: 10 µM and 64 μg/mL
  MBC: 128 µg/mL
[3]; [12]
  Act (antibacterial activity): Bc
[3]
  MIC: 16 µg/mL
  MBC: 32 µg/mL
[4]; [12]
  Act (antibacterial activity): Bs
[4]
  MIC: 32 μg/mL and 5 µM
  MBC: >128 µg/mL
[10]
  percentage inhibition of SARS-CoV-2 infection: 54%
[6]; [12]
  Act (antibacterial activity): Bs
[6]
  MIC: 32 μg/mL and 5 µM
  MBC: >128 µg/mL
[7]; [12]
  Act (antibacterial activity): Bc
[7]
  MIC: 5 µM and 32 μg/mL
  MBC: 64 µg/mL
[11]; peptide 10 µM
  Inhibition (%) at 10 µM: 98.40 ± 0.00%
[11]
  IC50: 1400 ± 20 nM
[8]; [12]
  Act (antibacterial activity): Bc
[8]
  MIC: 64 μg/mL and 10 µM
  MBC: 256 µg/mL
[9]; [12]
  Act (antibacterial activity): Bc
[9]
  MBC: 32 µg/mL

Reference: paper PMC9964244, “Effects of Dimerization, Dendrimerization, and Chirality in p-BthTX-I Peptide Analogs on the Antibacterial Activity and Enzymatic Inhibition of the SARS-CoV-2 PL^pro Protein” (Pharmaceutics, 2023)
